“And” between values parts separate entries of the source, which are not always exact repeats. Identical values can stand only once. Toxic doses and inconclusive results are not listed. Rule for the calls: active = survival T/C of 150% or more; inactive = T/C below 125% in these data. Peptide text beside a SMILES is read from it. * marks the point of attachment. For = O=C*
Test system: P388 leukemia ip, CD2F1 mice, survival T/C
Assay: NCI In Vivo Anticancer Drug Screen. Data for tumor model P388 Leukemia (intraperitoneal) in CD2F1 (CDF1) mice
Conditions: endpoint: median survival time, higher = longer survival
In short: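 Mice carrying the transplanted tumor received test compound or vehicle. Survival was recorded in each group, and the value is the treated-group measurement divided by that of the vehicle-treated control group.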

[1] = dose: 6.25 mg/kg/injection, schedule: Q01DX009 (ip), vehicle: saline with Tween-80
[2] = dose: 12.5 mg/kg/injection, schedule: Q01DX009 (ip), vehicle: saline with Tween-80
[3] = dose: 50.0 mg/kg/injection, schedule: Q01DX005 (ip), vehicle: Klucel (hydroxypropylcellulose) (HPC)
[4] = dose: 100.0 mg/kg/injection, schedule: Q01DX005 (ip), vehicle: Klucel (hydroxypropylcellulose) (HPC)
[5] = dose: 200.0 mg/kg/injection, schedule: Q01DX005 (ip), vehicle: Klucel (hydroxypropylcellulose) (HPC)
[6] = dose: 60.0 mg/kg/injection, schedule: Q01DX005 (ip), vehicle: saline with Tween-80
[7] = dose: 120.0 mg/kg/injection, schedule: Q01DX005 (ip), vehicle: saline with Tween-80
[8] = dose: 240.0 mg/kg/injection, schedule: Q01DX005 (ip), vehicle: saline with Tween-80
[9] = dose: 12.5 mg/kg/injection, schedule: Q01DX009 (ip), vehicle: Klucel (hydroxypropylcellulose) (HPC)
[10] = dose: 25.0 mg/kg/injection, schedule: Q01DX009 (ip), vehicle: Klucel (hydroxypropylcellulose) (HPC)
[11] = dose: 50.0 mg/kg/injection, schedule: Q01DX009 (ip), vehicle: Klucel (hydroxypropylcellulose) (HPC)
[12] = dose: 6.25 mg/kg/injection, schedule: Q01DX005 (ip), vehicle: Klucel (hydroxypropylcellulose) (HPC)
[13] = dose: 12.5 mg/kg/injection, schedule: Q01DX005 (ip), vehicle: Klucel (hydroxypropylcellulose) (HPC)
[14] = dose: 100.0 mg/kg/injection, schedule: Q01DX009 (ip), vehicle: Klucel (hydroxypropylcellulose) (HPC)
[15] = dose: 200.0 mg/kg/injection, schedule: Q01DX009 (ip), vehicle: Klucel (hydroxypropylcellulose) (HPC)
[16] = dose: 25.0 mg/kg/injection, schedule: Q01DX005 (ip), vehicle: Klucel (hydroxypropylcellulose) (HPC)

Measured: T/C

BrCC[Se](Br)(Br)c1ccccc1
inactive: dose: 1.56 mg/kg/injection, schedule: Q01DX009 (ip), vehicle: Klucel (hydroxypropylcellulose) (HPC) 101 % of control | dose: 3.12 mg/kg/injection, schedule: Q01DX009 (ip), vehicle: Klucel (hydroxypropylcellulose) (HPC) 101 % of control | dose: 6.25 mg/kg/injection, schedule: Q01DX009 (ip), vehicle: Klucel (hydroxypropylcellulose) (HPC) 99 % of control and 93 % of control

CCN1CCCC(OC(=O)c2cccc3[nH]ccc23)C1 (stereo unspecified)
inactive: dose: 3.13 mg/kg/injection, schedule: Q01DX009 (ip), vehicle: saline with Tween-80 118 % of control | [1] 103 % of control | [2] 98 % of control | dose: 25.0 mg/kg/injection, schedule: Q01DX009 (ip), vehicle: saline with Tween-80 99 % of control

CSCCC(C(=O)O)N1C(=O)C=CC1=O (stereo unspecified)
inactive: dose: 11.25 mg/kg/injection, schedule: Q01DX009 (ip), vehicle: saline with Tween-80 97 % of control | dose: 22.5 mg/kg/injection, schedule: Q01DX009 (ip), vehicle: saline with Tween-80 97 % of control | dose: 45.0 mg/kg/injection, schedule: Q01DX009 (ip), vehicle: saline with Tween-80 100 % of control and 88 % of control

Cc1cc(N/N=C/c2ccc(Br)cc2)c2cc3c(cc2n1)OCO3
inactive: [3] 94 % of control | [4] 96 % of control | [5] 96 % of control

O=C(CN1CCOCC1)Nc1nc(-c2ccc(Cl)cc2)cs1
inactive: dose: 25.0 mg/kg/injection, schedule: Q01DX005 (ip), vehicle: DMSO 98 % of control | dose: 50.0 mg/kg/injection, schedule: Q01DX005 (ip), vehicle: DMSO 100 % of control | dose: 100.0 mg/kg/injection, schedule: Q01DX005 (ip), vehicle: DMSO 99 % of control | dose: 200.0 mg/kg/injection, schedule: Q01DX005 (ip), vehicle: DMSO 95 % of control | dose: 400.0 mg/kg/injection, schedule: Q01DX005 (ip), vehicle: DMSO 98 % of control

Cc1ccc(S(=O)(=O)N=S(C)(=O)CCCl)cc1 (stereo unspecified)
inactive: dose: 25.0 mg/kg/injection, schedule: Q04DX003 (ip), vehicle: saline 100 % of control | dose: 50.0 mg/kg/injection, schedule: Q04DX003 (ip), vehicle: saline 107 % of control | dose: 100.0 mg/kg/injection, schedule: Q04DX003 (ip), vehicle: saline 100 % of control | dose: 100.0 mg/kg/injection, schedule: Q04DX003 (ip), vehicle: suspension in saline 94 % of control

O=[N+]([O-])c1cccnc1-n1nnc2c([N+](=O)[O-])cccc21
inactive: [6] 99 % of control | [7] 100 % of control | [8] 102 % of control

CC(NC=O)C(=O)NCC(=O)NC(CO)C(=O)NC(CCC(=O)O)C(=O)O (stereo unspecified) (For-AGSE-OH; configuration not given here)
inactive: dose: 7.81 mg/kg/injection, schedule: Q01DX005 (ip), vehicle: water 105 % of control | dose: 15.63 mg/kg/injection, schedule: Q01DX005 (ip), vehicle: water 104 % of control | dose: 31.25 mg/kg/injection, schedule: Q01DX005 (ip), vehicle: water 101 % of control | dose: 62.5 mg/kg/injection, schedule: Q01DX005 (ip), vehicle: water 101 % of control | dose: 125.0 mg/kg/injection, schedule: Q01DX005 (ip), vehicle: water 99 % of control

C[C@]12CCCC[C@@H]1CC[C@@H]1[C@@H]2CC[C@]2(C)[C@@H](N(CCO)CCCO)CC[C@@H]12
inactive: [9] 93 % of control | [10] 99 % of control | [11] 88 % of control

Cc1nc2c(ccc3ccccc32)s1
inactive: [3] 106 % of control | [4] 100 % of control | [5] 100 % of control

CCn1c(=N)sc2nc3ccccc3n2c1=O
inactive: dose: 60.0 mg/kg/injection, schedule: Q01DX005 (ip), vehicle: Klucel (hydroxypropylcellulose) (HPC) 103 % of control | dose: 120.0 mg/kg/injection, schedule: Q01DX005 (ip), vehicle: Klucel (hydroxypropylcellulose) (HPC) 103 % of control

CC(C)([CH2][Sn]([Cl])([CH2]C(C)(C)c1ccccc1)[O][Sn]([Cl])([CH2]C(C)(C)c1ccccc1)[CH2]C(C)(C)c1ccccc1)c1ccccc1
inactive: dose: 1.56 mg/kg/injection, schedule: Q01DX005 (ip), vehicle: Klucel (hydroxypropylcellulose) (HPC) 104 % of control and 97 % of control | dose: 3.12 mg/kg/injection, schedule: Q01DX005 (ip), vehicle: Klucel (hydroxypropylcellulose) (HPC) 99 % of control and 100 % of control and 109 % of control | [12] 100 % of control and 119 % of control and 96 % of control | [13] 100 % of control and 106 % of control

C=CC(=NC(C)C)N(C)c1ccccc1
inactive: dose: 6.25 mg/kg/injection, schedule: Q01DX009 (ip), vehicle: saline 101 % of control | dose: 12.5 mg/kg/injection, schedule: Q01DX009 (ip), vehicle: saline 96 % of control | dose: 25.0 mg/kg/injection, schedule: Q01DX009 (ip), vehicle: saline 96 % of control

CCCCN(C)C12CN3CN(CN(C3)C1)C2
inactive: [11] 101 % of control | [14] 103 % of control | [15] 96 % of control

O=S(=O)(c1ccccc1)N(Cl)Cl
inactive: [1] 102 % of control and 104 % of control and 123 % of control | [2] 104 % of control and 120 % of control and 93 % of control | dose: 50.0 mg/kg/injection, schedule: Q01DX009 (ip), vehicle: saline with Tween-80 111 % of control

CC(=O)N1c2ccccc2Oc2ccc3ccccc3c21
inactive: dose: 50.0 mg/kg/injection, schedule: Q01DX005 (ip), vehicle: saline with Tween-80 104 % of control | dose: 100.0 mg/kg/injection, schedule: Q01DX005 (ip), vehicle: saline with Tween-80 100 % of control | dose: 200.0 mg/kg/injection, schedule: Q01DX005 (ip), vehicle: saline with Tween-80 97 % of control

COc1cc2c(cc1O)Cc1c-2[n+](C)cc2cc(OC)c(OC)cc12
inactive: [12] 117 % of control | [13] 109 % of control | [16] 115 % of control | dose: 100.0 mg/kg/injection, schedule: Q04DX002 (ip), vehicle: Klucel (hydroxypropylcellulose) (HPC) 119 % of control

O=C(Nc1cccc(NC(=O)Nc2cccc(C3=NCCN3)c2)c1)Nc1cccc(C2=NCCN2)c1
inactive: dose: 90.0 mg/kg/injection, schedule: Q01DX010 (ip), vehicle: saline 100 % of control

CC(C)=CCc1ccc2c(c1)CCCN2C
inactive: dose: 100.0 mg/kg/injection, schedule: Q04DX002 (ip), vehicle: saline with Tween-80 108 % of control | dose: 200.0 mg/kg/injection, schedule: Q04DX002 (ip), vehicle: saline with Tween-80 108 % of control

COc1ccc(C(=O)/C(C)=C(/C)NCCC#N)c(OCc2ccccc2)c1OC
inactive: dose: 25.0 mg/kg/injection, schedule: Q01DX009 (ip), vehicle: other 95 % of control | dose: 50.0 mg/kg/injection, schedule: Q01DX009 (ip), vehicle: other 91 % of control | dose: 100.0 mg/kg/injection, schedule: Q01DX009 (ip), vehicle: other 95 % of control | dose: 200.0 mg/kg/injection, schedule: Q01DX009 (ip), vehicle: other 100 % of control | dose: 400.0 mg/kg/injection, schedule: Q01DX009 (ip), vehicle: other 95 % of control

Cn1c(N)c(C(=O)/C=C/c2ccccc2)c(=O)n(C)c1=O
inactive: [9] 99 % of control and 124 % of control | [10] 120 % of control and 93 % of control | [14] 93 % of control and 113 % of control and 92 % of control | [15] 116 % of control

[N-]=[N+]=Nc1ccnc2cc(Cl)ccc12
inactive: [6] 108 % of control | [7] 100 % of control | [8] 104 % of control

Cc1nnc(CN2CCOCC2)n1-c1ccc(Cl)cc1C(=O)c1ccccc1
inactive: [10] 86 % of control | [11] 96 % of control | [14] 105 % of control

OCC1OC(n2cnc3c(NO)ncnc32)C(O)C1O (stereo unspecified)
inactive: [9] 102 % of control | [10] 100 % of control | [11] 99 % of control and 109 % of control and 110 % of control | [14] 100 % of control and 107 % of control and 113 % of control | [15] 103 % of control and 113 % of control and 97 % of control | dose: 400.0 mg/kg/injection, schedule: Q01DX009 (ip), vehicle: Klucel (hydroxypropylcellulose) (HPC) 102 % of control and 119 % of control

COc1ccc(/C=C/C(=O)c2ccccc(=O)c2O)c(OC)c1OC
inactive: [16] 105 % of control | [3] 99 % of control | [4] 109 % of control | [5] 108 % of control
